From ChEMBL document CHEMBL1127093, “Competitive NMDA receptor antagonists: synthesis of -ketophosphonate-substituted piperidine carboxylic acid derivatives” (Bioorg Med Chem Lett, 1993)

Biological target: Glutamate NMDA receptor
Test: Binding potency for NMDA site of the glutamate receptor complex using rat brain cortical membranes in a competitive binding assay with [3H]CPP as the radioligand
Type: cell membranes, Membrane

IC50	Structure (SMILES)
40 nM	O=C(CP(=O)(O)O)[C@H]1CCCN[C@H]1C(=O)O
15 nM	C[C@@H]1CCN[C@@H](C(=O)O)[C@H]1C(=O)CP(=O)(O)O

The remaining lines, values behind:

Structure (SMILES)	IC50
C[C@]1(C(=O)CP(=O)(O)O)CCCN[C@H]1C(=O)O	320 nM
C[C@]1(C(=O)CP(=O)(O)O)C=CCN[C@H]1C(=O)O	3.2 nM
O=C(CP(=O)(O)O)C1=CCCN[C@H]1C(=O)O	7.6 nM
